Source: article PMC12540872 (Nature Communications, 2025)

Target: MMOH (hydroxylase of soluble methane monooxygenase, sMMO)
Assay: isothermal titration calorimetry
Type: binding, Methylosinus trichosporium
Details: enthalpically driven; surface site near K323 proposed

## O=C1OC2(c3cc(I)c(O)c(I)c3Oc3c2cc(I)c(O)c3I)c2c(Cl)c(Cl)c(Cl)c(Cl)c21 [RB, rose bengal]
  Kd: 9.23 ± 1.3 µM
